Measured values: patent publication US20160243149A1, “NOVEL ANTI-VIRAL THERAPEUTIC” (priority 2012, published 2016)

Target: T1, VPg unlinkase (Homo sapiens, UniProt O95551)
T1 construct: To generate the HeLa cell homogenate used for the isolation of VPg unlinkase, 5 ml of packed HeLa cells were homogenized; endogenous in cells; host or cells: HeLa cells (uninfected); enzyme fractionated from total cell homogenate
T1 sequence (O95551 1-362): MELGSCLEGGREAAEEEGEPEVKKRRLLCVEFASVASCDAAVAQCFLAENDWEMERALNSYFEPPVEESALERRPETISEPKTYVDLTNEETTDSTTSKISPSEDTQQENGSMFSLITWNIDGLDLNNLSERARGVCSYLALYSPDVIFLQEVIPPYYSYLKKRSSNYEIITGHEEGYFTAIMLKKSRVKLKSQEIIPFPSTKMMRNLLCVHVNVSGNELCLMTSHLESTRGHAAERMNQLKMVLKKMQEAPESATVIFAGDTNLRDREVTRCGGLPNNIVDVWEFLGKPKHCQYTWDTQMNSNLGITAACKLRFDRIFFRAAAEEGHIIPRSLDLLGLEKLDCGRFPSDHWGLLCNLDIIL
Format: biochemical

## Cl.Nc1ncnc2c1ncn2[C@@H]1O[C@H](COC(=O)c2ccc(S(=O)(=O)F)cc2)[C@@H](O)[C@H]1O [5′FSBA]
  suppression of unlinkase activity: effectively suppressed unlinkase activity
